Target: SHP1 immunoprecipitated from LPS-activated DC2.4 cells (UniProt P29351)
Assay: SHP1 phosphatase assay (EnzChek tyrosine phosphatase kit), dose-response
Type: biochemical, mouse
Conditions: SHP1 from LPS (100 ng/ml)-activated DC2.4 cells; read-out: inhibitory tyrosine phosphatase activity IC50
Text: FIG. 3A: […] FIG. 3B: t-SNEs by CyTOF and quantification comparing the intensity of […]-SHP1 in TADCs from the vehicle-or VitE-treated EMT6 tumors at day 15 post-implantation. FIG. 3C: Top, SHP1 knockdown in BMDCs was effective. Bottom, CFSE-dilution analysis of OT-1 T cells co-cultured with OVA protein-pulsed BMDCs (ratio 10:1) with knockdown of SHP1 by […]6 versus siCtrl (n=3). Right, quantification of OT-1 T-cell numbers under the indicated condition. FIG. 3D: The binding of VitE to purified SHP1 is analyzed by microscale thermophoresis (MST) binding assay. […] FIG. 3E: Relative tyrosine phosphatase activity of SHP1 immunoprecipitated from LPS (100 ng/ml)-activated DC2.4 cells in the presence of indicated doses of VitE (mean of triplicates). FIG. 3F: SHP1 tyrosine phosphatase activity in LPS (100 ng/ml)-activated BMDCs (n=6) treated with vehicle-or VitE (50 μg/ml). Error bars, s.e.m. ns, no significant. *P<0.05, **P<0.01. ***P<0.001, ****P<0.0001. We assessed the phosphatase activity of SHP1 by using the RediPlate 96 EnzChek Tyrosine Phosphatase Assay Kit (ThermoFisher). […] We placed beads into RediPlate wells and incubated them for 30 min at 25° C. before reading them for fluorescence. […] The inhibitor dose-response curves were analyzed using normalized IC50 regression curve fitting with control-based normalization.

For `Cc1c(C)c2c(c(C)c1O)CC[C@@](C)(CCC[C@H](C)CCC[C@H](C)CCCC(C)C)O2` [VitE, D-α-Tocopherol], the IC50 was 50 to 200 µM.

— patent US20240424019A1, “SHP1 MODIFIED DENDRITIC CELLS AND EXTRACELLULAR VESICLES DERIVED THEREFROM AND ASSOCIATED METHODS” (BOARD OF REGENTS, THE UNIVERSITY OF TEXAS SYSTEM, priority 2021, published 2024)
